Source: the NIST ThermoML archive (doi:10.1021/je400531a)
“And” between values parts separate entries of the source, which are not always exact repeats. Equal values may be shown once.

Experiments:
[1] = Liquid; for vapor or sublimation pressure: Ebulliometric method (Recirculating still); for mass density: 293.15 K, 101.33 kPa, Vibrating tube method
[2] = refractive index (Na D-line) (dimensionless); settings: 293.15 K; 101.33 kPa; Liquid; Standard Abbe refractometry

O [water]
[1]
Settings | vapor or sublimation pressure
320.37 K | 10.74 kPa
324.33 K | 13.09 kPa
326.63 K | 14.66 kPa
328.29 K | 15.86 kPa
333.57 K | 20.33 kPa
340.16 K | 27.37 kPa
343.85 K | 32.16 kPa
345.44 K | 34.4 kPa
347.83 K | 38.07 kPa
349.4 K | 40.62 kPa
351.8 K | 44.82 kPa
354.68 K | 50.37 kPa
358.64 K | 58.91 kPa
361.08 K | 64.72 kPa
362.59 K | 68.63 kPa
367.87 K | 83.63 kPa
373.15 K | 101.31 kPa and 101.3 kPa

Settings | refractive index
[2] | 1.3312

CC#N [acetonitrile]
Settings | mass density [kg/m3] | refractive index
[1] | 782 | –
[2] | – | 1.3425

[1]
Settings | vapor or sublimation pressure
307.22 K | 18.08 kPa
311.3 K | 21.45 kPa
314.05 K | 24 kPa
316.73 K | 26.73 kPa
320.8 K | 31.35 kPa
323.52 K | 34.82 kPa
325.8 K | 37.88 kPa
328.95 K | 42.59 kPa
330.5 K | 45.06 kPa
333.02 K | 49.34 kPa
335.2 K | 53.31 kPa
338.45 K | 59.68 kPa
341.17 K | 65.47 kPa
343.43 K | 70.59 kPa
346.6 K | 78.43 kPa
350.67 K | 89.46 kPa
354.75 K | 101.64 kPa and 101.3 kPa

C[S+](C)[O-] [dimethyl sulfoxide]
Settings | mass density [kg/m3] | refractive index
[1] | 1101 | –
[2] | – | 1.4751

[1]
Settings | vapor or sublimation pressure
401.95 K | 15.28 kPa
405.11 K | 17.11 kPa
408.75 K | 19.42 kPa
411.45 K | 21.32 kPa
414.6 K | 23.72 kPa
419.36 K | 27.76 kPa
421.15 K | 29.41 kPa
424.1 K | 32.35 kPa
430.45 K | 39.43 kPa
433.59 K | 43.43 kPa
436.75 K | 47.75 kPa
439.92 K | 52.42 kPa
442.85 K | 57.05 kPa
447.83 K | 65.75 kPa
455.74 K | 81.72 kPa
463.43 K | 101.3 kPa
463.45 K | 100.76 kPa and 101.3 kPa
